Measured values reported in PubChem BioAssay (NCI).
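A five-concentration, 48-hour dose response in 96-well plates underlies each endpoint, interpolated linearly between surrounding concentrations. TGI marks complete inhibition of growth.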 Where a SMILES comes first, the peptide text is derived from it. The star is where a group is joined. OSu = O=C1CCC(=O)N1O*

Experiments:
Experiment in all cases: growth of human tumour cells (NCI), 48 h
786-0 renal = system: 786-0 renal
CAKI-1 renal = system: CAKI-1 renal
CCRF-CEM leukemia = system: CCRF-CEM leukemia
COLO 205 colon = system: COLO 205 colon
DU-145 prostate = system: DU-145 prostate
EKVX NSCLC = system: EKVX NSCLC
HT29 colon = system: HT29 colon
K-562 leukemia = system: K-562 leukemia
KM12 colon = system: KM12 colon
NCI-H23 lung = system: NCI-H23 lung
OVCAR-4 ovarian = system: OVCAR-4 ovarian
OVCAR-5 ovarian = system: OVCAR-5 ovarian
RPMI-8226 leukemia = system: RPMI-8226 leukemia
SF-268 CNS = system: SF-268 CNS
SK-MEL-28 melanoma = system: SK-MEL-28 melanoma
SN12C renal = system: SN12C renal
UACC-257 melanoma = system: UACC-257 melanoma
BT-549 breast = system: BT-549 breast

| SMILES | TGI (786-0 renal) [µM] | TGI (CAKI-1 renal) [µM] | TGI (CCRF-CEM leukemia) [µM] | TGI (COLO 205 colon) [µM] | TGI (DU-145 prostate) [µM] | TGI (EKVX NSCLC) [µM] | TGI (HT29 colon) [µM] | TGI (K-562 leukemia) [µM] | TGI (KM12 colon) [µM] | TGI (NCI-H23 lung) [µM] | TGI (OVCAR-4 ovarian) [µM] | TGI (OVCAR-5 ovarian) [µM] | TGI (RPMI-8226 leukemia) [µM] | TGI (SF-268 CNS) [µM] | TGI (SK-MEL-28 melanoma) [µM] | TGI (SN12C renal) [µM] | TGI (UACC-257 melanoma) [µM] | TGI (BT-549 breast) [µM] |
| --- | --- | --- | --- | --- | --- | --- | --- | --- | --- | --- | --- | --- | --- | --- | --- | --- | --- | --- |
| O=c1[nH]nc(-c2ccc(F)cc2)cc1-c1ccccc1 | > 100 | > 100 | > 100 | > 100 | > 100 | > 100 | > 100 | > 100 | > 100 | > 100 | > 100 | > 100 | > 100 | > 100 | > 100 | > 100 | > 100 | – |
| C/C(O)=C(\C=NC(=S)c1ccncc1)C(=O)Nc1ccccc1C | > 100 | > 100 | – | > 100 | > 100 | > 100 | > 100 | – | > 100 | > 100 | > 100 | > 100 | – | > 100 | > 100 | > 100 | > 100 | > 100 |
| O/N=C\C(=Nc1ccc(Cc2ccc(N=C(/C=N\O)NO)cc2)cc1)NO | > 100 | 69.2 | > 100 | > 100 | – | > 100 | > 100 | > 100 | > 100 | > 100 | > 100 | > 100 | > 100 | > 100 | > 100 | > 100 | > 100 | – |
| CC(=O)n1nc(-c2ccc3ccccc3c2)nc1C | > 100 | > 100 | > 100 | > 100 | > 100 | > 100 | > 100 | > 100 | > 100 | – | > 100 | > 100 | – | > 100 | – | > 100 | > 100 | > 100 |
| OC12c3ccccc3C1CCCCCC21OCCCO1 (stereo not given) | > 100 | > 100 | > 100 | > 100 | – | – | > 100 | > 100 | > 100 | > 100 | > 100 | > 100 | > 100 | > 100 | > 100 | > 100 | > 100 | – |
| CC(=O)NC1=C(N)C(=O)c2ccccc2C1=O | > 100 | > 100 | > 100 | 80.6 | – | > 100 | > 100 | > 100 | > 100 | > 100 | – | > 100 | > 100 | > 100 | – | > 100 | > 100 | – |
| CCCCCCCCCC(=O)NC(Cc1ccc(O)cc1)C(=O)NCCCNCCCCNCCCNC(=O)[C@@H](N)CCCN=C(N)N (stereo not given in full) | > 100 | – | > 100 | 34.5 | – | > 100 | > 100 | > 100 | 61.5 | > 100 | – | – | > 100 | > 100 | 43.8 | > 100 | > 100 | – |
| CC(=O)O[C@H]1C(=O)[C@@]2(C)[C@H]([C@H](OC(=O)c3ccccc3)[C@]3(O)C[C@H](OC(=O)[C@H](O)[C@@H](NC(=O)c4ccc(N(C)C)cc4)c4ccccc4)C(C)=C1C3(C)C)[C@]1(OC(C)=O)CO[C@@H]1C[C@@H]2O | > 50 | > 50 | 2.34 | – | – | > 50 | – | – | > 50 | > 50 | > 50 | > 50 | 0.00795 | > 50 | > 50 | > 50 | – | > 50 |
| COC(=O)CCC(=O)N1CC1C (stereo not given) | > 100 | > 100 | > 100 | > 100 | – | > 100 | > 100 | > 100 | > 100 | > 100 | > 100 | > 100 | > 100 | > 100 | > 100 | > 100 | > 100 | – |
| NCCCCC(NC(=O)C(N)Cc1ccc(O)cc1)C(=O)NC(Cc1ccc(O)cc1)C(=O)NC(CCCCN)C(=O)ON1C(=O)CCC1=O (stereo not given) (H-YKYK-OSu; configuration not given here) | > 100 | – | – | > 100 | – | > 100 | > 100 | > 100 | > 100 | > 100 | – | > 100 | > 100 | – | > 100 | > 100 | > 100 | > 100 |
| COc1cc(C2c3cc4c(cc3[C@@H](N(C)c3ccc(N(C)C)cc3)C3COC(=O)C23)OCO4)cc(OC)c1O (stereo not given in full) | 26.4 | 25 | 35.5 | 4.23 | – | 44.2 | 2.62 | 30.6 | 21.5 | 4.92 | 29.4 | 31.3 | > 100 | 6.85 | 27.3 | 18.1 | 18 | – |
| COC(=O)C1(O)C(c2ccccc2)NC2(C)CCCC21 (stereo not given) | > 100 | > 100 | > 100 | > 100 | > 100 | – | – | – | > 100 | > 100 | > 100 | – | – | > 100 | > 100 | > 100 | > 100 | > 100 |
| C=CCn1c(=N)/c(=C(\N)O)s/c1=C1/SC(=S)N(c2ccc(C)cc2)C1=O | – | – | > 100 | > 100 | – | – | > 100 | > 100 | > 100 | > 100 | – | > 100 | > 100 | > 100 | > 100 | – | > 100 | – |
| COC(=O)CNC(=O)CCC(C)[C@H]1CCC2C3C(C[C@H](OC(C)=O)[C@@]21C)[C@@]1(C)CCC2(C[C@H]1C[C@H]3OC(C)=O)OOC1(CCCCC1)OO2 (stereo not given in full) | 3.48 | 3.78 | 5.02 | 3.89 | – | 3.74 | 7.44 | 9.51 | 3.64 | 3.64 | 3.66 | 6.62 | 3.91 | 3.59 | 22.1 | 3.17 | 20.1 | 3.9 |
| COc1ccc2oc(C(=O)N3CC(CCl)c4ccc(N)cc43)cc2c1 (stereo not given) | 0.277 | 0.648 | 9.17 | 1.28 | 1.62 | 4 | 1.44 | > 63.4 | 1.45 | 1.1 | – | > 41 | – | 9.61 | 2.55 | 8.5 | 6.57 | 1.85 |
